Experimental data published in US11634434B2, “Bifunctional alpha-synuclein binding agents and uses thereof” (University of Saskatchewan, priority 2016, dated 2023).
Where two headings read alike, the source gives them in different places.

How the values were obtained:
[1] = test system: protein aggregation in substantia nigra; assay: Thioflavin S staining of substantia nigra of ASIA-treated rats; type: in vivo, rat
Protocol: (§1) Rats are subjected to 7-day chronic injection of 3 mg/kg of each test compound, and a forced swim test is conducted after the seventh day to measure motor deficits. […] For a second round of studies, rats are divided into four treatment groups, and the same experiments were repeated:
Tissue sections of substantia nigra from each of the treatment groups in the rat studies were evaluated for the presence of tyrosine hydroxylase, DNA (using the nuclear stain DAPI) and alpha-synuclein using immunohistochemistry. After behavioural tests were completed, the rats were euthanized, perfused and fixed in 4% paraformaldehyde. 40 μm brain slices were utilized for the immunohistochemistry procedure. Anti-Tyrosine Hydroxylase—a primary antibody for tyrosine positive neurons, host species rabbit, Millipore, Sigma Aldrich. DAPI—nuclear stain already pre-conjugated (NucBlue Fixed Cell Stain ReadyProbe reagent, Thermo Fisher Scientific). Anti-Alpha Synuclein—primary antibody for Anti-Synuclein, host species mouse, Abcam. Primary antibodies were diluted 1:500. Alexa Fluoro 488 Donkey anti-rabbit IgG—secondary antibody with fluorescent tag, Invitrogen, Thermo Fisher Scientific. Alexa Fluoro 594 Goat anti-mouse IgG—secondary antibody with fluorescent tag, Life Technologies, Thermo Fisher Scientific. Secondary antibodies were diluted 1:1000. Thioflavin S—stain for alpha-synuclein aggregates, Sigma Aldrich. […]

[2] = test system: alpha-synuclein in substantia nigra; assay: Immunohistochemistry of alpha-synuclein in substantia nigra of ASIA-treated rats; type: in vivo, rat; settings: 7 days of chronic injections
Protocol: (§2) male Sprague-Dawley rats are used (200 g-300 g). All animals are handled ethically following approved protocols. For the first round of studies, rats are divided into five treatment groups:
as §1
Tissue sections of substantia nigra from each of the treatment groups in the rat studies were evaluated for the presence of tyrosine hydroxylase, DNA (using the nuclear stain DAPI) and alpha-synuclein using immunohistochemistry. After behavioural tests were completed, the rats were euthanized, perfused and fixed in 4% paraformaldehyde. 40 μm brain slices were utilized for the immunohistochemistry procedure. Anti-Tyrosine Hydroxylase—a primary antibody for tyrosine positive neurons, host species rabbit, Millipore, Sigma Aldrich. DAPI—nuclear stain already pre-conjugated (NucBlue Fixed Cell Stain ReadyProbe reagent, Thermo Fisher Scientific). Anti-Alpha Synuclein—primary antibody for Anti-Synuclein, host species mouse, Abcam. Primary antibodies were diluted 1:500. Alexa Fluoro 488 Donkey anti-rabbit IgG—secondary antibody with fluorescent tag, Invitrogen, Thermo Fisher Scientific. Alexa Fluoro 594 Goat anti-mouse IgG—secondary antibody with fluorescent tag, Life Technologies, Thermo Fisher Scientific. Secondary antibodies were diluted 1:1000. Thioflavin S—stain for alpha-synuclein aggregates, Sigma Aldrich. Thioflavin S stock concentration at 5 mg/ml. Final dilution 1:100.
Tyrosine hydroxylase is a marker for dopaminergic neurons and is used to confirm that the desired cells are being imaged. DAPI (4′,6-diamidino-2-phenylindole) is a stain that binds to A-T rich regions in DNA, and is used to identify cell nuclei. Thioflavin S is used to stain aggregated proteins such as amyloid plaques. A higher level of staining with thioflavin S is indicative of a higher degree of protein aggregation.

[3] = test system: male Sprague-Dawley rats with increased alpha-synuclein expression; assay: Forced swim test in ASIA-treated rats; type: in vivo, rat; settings: for success in forced swim test / vigor in forced swim test: last three minutes of the test
Protocol: as §2, §1
The forced swim test is carried out by immersing the rat in water that is sufficiently deep to force the rat to swim. The forced swim test is scored based on the following criteria:
Vigor and success are measures of motor function. Immobility is thought to be a measure of depression.^59 Based on videos of the forced swim test, the amount of time that each rat was motionless was calculated as a form of scoring depression for each treatment. Statistical analysis was carried out using an ordinary one-way ANOVA and Tukey multiple comparisons test.

[4] = test system: yeast strain 2AS (2 copies of AS-GFP gene); type: cell-based
Protocol: (§3) Third, the drugs were assayed in a yeast model of Parkinson's Disease, which expresses an alpha-synuclein-Green Fluorescent Protein (AS-GFP) construct under the control of a galactose promoter.
Construction of the 1AS and 2AS strains has been described in detail previously.^55 Strains were grown in YPD supplemented with 30 μg/ml of all amino acids. The OD600 was adjusted to 0.05 in drop-out media (no uracil) at 30° C. Drugs were dissolved in methanol at 0.01 micromolar, 0.1 micromolar, 1 micromolar or 10 micromolar followed by addition of 100 micromolar or 5 mM galactose to a final volume of 10 mL.

[5] = test system: alpha-synuclein-GFP aggregation in yeast strain 2AS; type: cell-based; settings: 1 micromolar compound, 5 mM galactose; for AS-GFP foci / fluorescence pattern: up to 12 hours
Protocol: as §3
For Analysis of AS-GFP distribution, the 2AS strain was grown overnight in drop-out media. After normalization of culture density, galactose was administered to a final concentration of 5 mM. […] For the yeast recovery assay, yeast cells were obtained after 6 hours induction with 5 mM galactose concentration, washed in galactose free media and the compounds were added to a final concentration of 1 micromolar in a 2 mL reaction mixture. The culture was incubated at 30° C. for 3, 6, and 9 hour intervals. Images were obtained at each interval using an Olympus Infinity (BX51) fluorescence microscope at 100× magnification.

[6] = molecular target: T1, alpha-synuclein (Homo sapiens, UniProt P37840); assay: Isothermal titration calorimetry (ITC) binding to alpha-synuclein; settings: for increase of Ka for a 10-fold decrease in ionic strength: 100 mM KCl versus 1.0M KCl; for # Binding sites: Table 2; for Bind to N and C?: binds to both N and C portions of alpha-synuclein; for binding constants as measured by ITC, order of magnitude: summary statement; for Kd: read-out: Ka (converted); for Bind to N and C?: key: Y indicates yes; N indicates no
Protocol: (§4) Nanopore analysis and isothermal titration calorimetry were performed as described previously.^21,54

[7] = molecular target: T1, alpha-synuclein; assay: Nanopore analysis of alpha-synuclein (blockade current histograms); type: binding; settings: 1 micromolar alpha-synuclein, 20 micromolar compound; for nanopore profile (bumping peak / binding): FIG. 3
Protocol: The bifunctional molecules were characterized by four different methods. […] If the compound causes a more compact conformation, then the alpha-synuclein can no longer translocate and it simply bumps into the pore giving rise to a very small change in the blockade current.^44-46
as §4

[8] = test system: preformed alpha-synuclein-GFP foci in yeast strain 2AS; assay: Yeast recovery assay, fluorescence microscopy of preformed AS-GFP foci; type: cell-based; settings: for effect on preformed large foci of alpha-synuclein: compound added 6 hours after induction with 5 mM galactose
Protocol: For Analysis of AS-GFP distribution, the 2AS strain was grown overnight in drop-out media. After normalization of culture density, galactose was administered to a final concentration of 5 mM. Fluorescence images were obtained at zero time, 3 hours, 6 hours, 9 hours and 12 hours. For the yeast recovery assay, yeast cells were obtained after 6 hours induction with 5 mM galactose concentration, washed in galactose free media and the compounds were added to a final concentration of 1 micromolar in a 2 mL reaction mixture. The culture was incubated at 30° C. for 3, 6, and 9 hour intervals. Images were obtained at each interval using an Olympus Infinity (BX51) fluorescence microscope at 100× magnification.

[9] = test system: yeast strain 2AS; assay: Yeast recovery assay, growth of 2AS after 6 hours galactose induction; type: cell-based
[10] = molecular target: T1, alpha-synuclein; settings: 10 micromolar compound, shown previously; cited from earlier work
[11] = 1 micromolar compound + 5 mM galactose
[12] = ITC in 1.0M KCl, bifunctional molecules (or monomers) per alpha-synuclein molecule, best fit
[13] = 1 micromolar compound added after 6 hours of 5 mM galactose and wash

Row | Compound | level of alpha-synuclein staining in substantia nigra ([2]; ASIA + compound 3 mg/kg) | immobility in forced swim test ([3]; ASIA + compound 3 mg/kg) | success in forced swim test ([3]; ASIA + compound 3 mg/kg) | vigor in forced swim test ([3]; ASIA + compound 3 mg/kg) | growth of 2AS yeast [4, 11] | AS-GFP foci / fluorescence pattern [5] | increase of Ka for a 10-fold decrease in ionic strength [6] | # of Binding sites ([6]; ITC in 100 mM KCl) | Ka ([6]; ITC in 100 mM KCl) | Ka ([6]; ITC in 1.0M KCl) | # of Binding sites [6, 12] | # Binding sites [6] | Ka ([6]; Table 2, ITC) | Bind to N and C? [6] | binding constants as measured by ITC, order of magnitude [6] | major peak, blockade current [7] | nanopore profile (bumping peak / binding) [7] | effect on preformed large foci of alpha-synuclein [8] | major peak, blockade current, compound alone [10] | formation of foci delayed until (time after induction) [5] | also measured
1 | Cn1c(=O)c2c(nc(CCCCCCNC3CCc4ccccc43)n2C)n(C)c1=O (racemic) [Compound C8-6-I] | reduced | improved | improved success | improved vigor | essentially normal | by 12 hours the peripheral halo is restored | approximately 10 fold | 1 | 560000 M⁻¹ | 53000 M⁻¹ | 1 | 1 | 53000 M⁻¹ | Y | ~10^5 M^−1 | −68 pA | do not have a significant bumping peak | can cause preformed large foci of alpha-synuclein to dissipate |  |  | degree of protein aggregation, thioflavin S staining ([1]; ASIA + compound 3 mg/kg): decreases the degree of protein aggregation; degree of protein aggregation, thioflavin S staining ([1]; ASIA + compound 5 mg/kg): decreases the degree of protein aggregation; level of alpha-synuclein staining in substantia nigra ([2]; ASIA + compound 5 mg/kg): reduced; immobility in forced swim test ([3]; ASIA + compound 5 mg/kg): further improved; success in forced swim test ([3]; ASIA + compound 5 mg/kg): further improved success; vigor in forced swim test ([3]; ASIA + compound 5 mg/kg): further improved vigor; growth of 2AS yeast ([4]; 0.1 micromolar compound + 5 mM galactose): normal growth; fluorescence pattern after compound addition to cells with preformed foci [8, 13]: By 9 hours, the peripheral location is restored and the halo reappears; time of resumption of growth [9, 13]: ~8 h; time of resumption of growth ([9]; 10 micromolar compound added after 6 hours of 5 mM galactose and wash): about 6 hours
2 | Cn1c(=O)c2c(ncn2C)n(C)c1=O [Caffeine, caffeine, reference compound] |  |  |  |  |  |  |  |  |  |  | 1 | 1 |  | Y |  |  |  |  | about −76 pA | 9 h | 
3 | CN(C)C(=N)N=C(N)N [Metformin, metformin, reference compound] |  |  |  |  |  |  |  |  |  |  | 1 | 3 |  | N |  |  |  |  | about −65 pA | 9 h | growth of 2AS yeast ([4]; 1 micromolar compound + 100 micromolar galactose): rate of growth which is similar to that shown by the WT strain; Kd ([6]; ITC in 1.0M KCl): 109 nM; Kd ([6]; Table 2, ITC): 111 nM
4 | NC1Cc2ccccc2C1 [Compound 2-aminoindan, 2-aminoindan, reference compound] | considerably increased | significantly increases immobility | decreased success | decreased vigor |  |  |  |  |  |  |  |  |  |  |  |  |  |  |  |  | 
5 | Cn1c(=O)c2c(nc(CCCCCCN3CCCC3c3cccnc3)n2C)n(C)c1=O (racemic) [Compound C8-6-N] |  |  |  |  | essentially normal | similar | approximately 10 fold | 1 | 480000 M⁻¹ | 43000 M⁻¹ | 1 | 1 | 43000 M⁻¹ | Y | ~10^5 M^−1 | −55 pA | do not have a significant bumping peak | can cause preformed large foci of alpha-synuclein to dissipate |  |  | 
